Experiment [1] has as its system transcription factor AP-1. In words: Electrophoretic mobility shift assay (EMSA) for AP-1 activation in primary rat neurons / cortical cultures. The format is cell-based. How it is done:
Nuclear extracts for electrophoretic mobility shift assays (EMSAs) were prepared as described previously (Adams et al., J. Leukocyte Biol., 62: 865-873 (1997)) using 1.0-2.0×10^7 cells per sample. All buffers were freshly supplemented with dithiothreitol (DTT, 0.5 mM), protease inhibitors: PMSF (0.5 mM), chymostatin, peptstatin-A, aprotinin, antipain, leupeptin (each at 1 μg/ml), and phosphatase inhibitors: NaF (10 mM), ZnCl2 (1 mM), sodium orthovanadate (1 mM), and sodium pyrophosphate (5 mM). Aliquots of the final dialyzates were stored at −80° C. and discarded after use.
AP-1 transcription factor activation was assayed using an electrophoretic mobility shift assay (EMSA), as described by Adams et al., J. Leukoc. Biol., 62:865-873 (1997)). Cultures of primary rat neurons (Cornell-Bell et al., Cell Calcium, 12: 185-204 (1991)) were stimulated for 3 hours with various concentrations (0, 1, 10, 100 ng/ml) of peptide CMX-9236. Nuclear extracts prepared as described above were separated by gel electophoresis on non-denaturing gels and subjected to the EMSA procedure. This EMSA used an AP-1 synthetic duplex probe (Angel, P., 1987, Cell 49:729-739) having the sequence 5′-[…] (SEQ ID NO:33) and its antisense copy (complement strand), which were end-labeled with P^32 using polynucleotide kinase and (γ-P^32)-ATP. For the EMSA reaction, the labeled probe (0.5 pmol) was mixed with 3 μg of nuclear extract protein in a solution containing 10 mM Tris-HCl, pH 7.5, 50 mM NaCl, 1 mM EDTA, 1 mM dithiothreitol, 5% glycerol, 0.02% β-mercaptoethanol, and 1 μg of poly-dI/dC (Pharmacia). Reaction mixtures were incubated at 25° C. for 20 minutes to allow complete complex formation by the duplex with its appropriate AP-1 protein. The mixture was then electrophoresed under non-denaturing conditions through 4% polyacrylamide gels in 0.5×TBE buffer (45 mM Trisma base, 45 mM boric acid, 1 mM EDTA). The gels were dried on 3 mm paper. Bands were visualized by autoradiography at −80° C. with one intensifying screen and quantified by laser densitometry. The upregulation of AP-1 and the activation and upregulation process of AP-1 was compared to control cultures.
Primary cortical cell cultures were grown to confluence and used in in vitro cultures for determining the effects of various representative peptide compounds on upregulation of AP-1. […] Extracts were prepared from the nuclei isolated from the primary culture homogenates, purified, and analyzed for the presence of specific transcription factors using the electrophoretic mobility shift assay (EMSA) method. The binding of ^32P-labeled duplex DNA probes specific for activator protein-1 (AP-1) or nuclear factor κB (NF-κB) was analyzed and quantified by autoradiography. After a 3-hour incubation of the cultures with 1 ng/ml of the peptide CMX-9236 there was a 15-fold increase of AP-1 relative to […] control cultures. […] Thus, a small peptide compound that is less than 20 amino acids long can simulate the properties of large growth factors such as NGF and BDNF, which exist as dimers of protein chains with molecular weights of 13,259 and 13,500, respectively.

In experiment [2] the test system is middle cerebral artery (MCA) permanent occlusion stroke model. In words: Permanent MCA 24-hour occlusion stroke model. The format is in vivo, Sprague-Dawley rats. To be noted: rat, in vivo. The procedure: The in vivo neuroprotective effects of CMX-9236 were investigated in both temporary and permanent occlusion stroke models in Sprague-Dawley rats using an intraluminal suture of the middle cerebral artery (MCA) occlusion method (Zea Longa et al., Stroke, 20: 84 (1989)). Briefly, a 4-0 silicone-coated suture was inserted through the right common carotid artery to block the MCA orifice. In the temporary model, CMX-9236 (6.2 mg/kg/hr) or vehicle was administered via the femoral vein at 30 minutes after the start of a 2-hour occlusion for a 4-hour continuous infusion; the rats were then reperfused by withdrawing the suture at […] after the MCA occlusion. All experiments were performed in a blinded and randomized manner, and rectal temperature was maintained at 37° C. The animals were sacrificed, and their brains were removed, sectioned into six 2-mm-thick coronal slices and stained with 2,3,5-triphenyltetrazolium chloride solution (Bederson et al., Stroke, 17:1304 (1986)) to visualize the extent of brain damage for the calculation of the corrected hemispheric infarct volumes (Nagasawa and Kogure, Stroke, 20:1037 (1989); Li et al., J. Cereb. Blood Flow Metab., 17:1132 (1997)). […] This represents a significant reduction of infarct size (35±5%, p=0.01, student t-test) for the CMX-9236-treated group in the temporary occlusion model. There was also a 58+11% improvement in the neurological scoring (Minematsu et al., Neurology, 42:235 (1992)) for the peptide-treated group versus controls at the end of 24 hours.
In the permanent occlusion stroke model, the blood flow to the MCA territory was blocked for the total 24-hour period. A continuous i.v. infusion (0.5 ml/hr) of the CMX-9236 peptide (2.04 mg/kg/hr) or vehicle was initiated at 30 minutes after occlusion for 6 hours, followed by a bolus i.v. infusion of CMX-9236 (4.0 mg/kg in 0.5 ml delivered over 10 minutes) or vehicle at 12 hours after occlusion. The corrected infarct volumes were 127.5±18 mm^3 versus 216±18 mm^3 for drug-treated animals and controls, respectively. This represents a significant decrease (41±5%, p=0.003, student t-test) in infarct size for the drug-treated group as compared to the vehicle-treated control group (n=10 per group) in the permanent model, indicating a substantial rescue of brain tissue. These findings indicate that CMX-9236 has neuroprotective properties post-trauma in vivo, reducing the brain damage generated by cerebral ischemia.

Experiment [3] deals with superoxide dismutase-1 (SOD-1) mRNA. In words: RT-PCR upregulation of SOD-1 mRNA in rat primary cortical cell cultures. The format is cell-based. The following applies: 10 ng/ml, 3 hours. The procedure:
The RT-PCR method (see, for example, Innis et al., PCR Protocols: A Guide to Methods and Applications, (Academic Press, San Diego, 1990)) was used to investigate the upregulation of the specific mRNA that codes for the enzyme superoxide dismutase (SOD).
(§1) Primary cortical cultures were obtained by growing newborn rat brain cortical cells in Delbecco's modified Eagle medium supplemented with 25 μg/ml of gentamycin and 10% fetal calf serum. The cells were isolated from the E-21 cortex of rat brain, plated at a density of 1×10^5 per ml and grown to confluence within four to five days in an atmosphere containing air and 5% CO2 at 37° C. as described in Cornell-Bell et al., Science, 247: 470-473 (1990) and Cell Calcium, 12: 185-204 (1991). Cultures were grown in 20 ml flasks as a monolayer and then exposed to various concentrations of peptides for studies of the effects of peptides on upregulation of genes for SOD and CAT and on the transmigration of transcription factor AP-1 to cell nuclei.
Primary cultures of rat brain cortical cells were incubated with 100 ng/ml of peptide compound CMX-9236 for durations of 0 to 48 hours. mRNA was isolated from the cytoplasmic fraction of lysed cells according to standard methods (Angel et al., Cell 49:729-739, 1987). The RNA was incubated according to the RT-PCR protocol with two strands, 20 nucleotides long, one for the sense and one from the antisense strand. The sequences were selected to be unique for superoxide dismutase-1 (SOD-1), and to span one intron segment. […] The sequence of the two probe segments of the oligo dT segments for SOD are as follows: anti-sense strand, […] (SEQ ID NO:29), and sense strand, […] (SEQ ID NO:30). These span a sequence of 208 base pairs (bp) on the primary SOD sequence. The mixture was then treated with reverse transcriptase to obtain the cDNA according to standard PCR methods. The cDNA was then analyzed by electrophoresis and separated according to sequence lengths on a non-denaturing 5% polyacrylamide gel. The electrophoretically separated molecules were treated with ethidium bromide to stain double-stranded DNA fragments. These were visualized by ultraviolet illumination and photographed. The gels were then analyzed by a laser scanning fluorescence detector to quantitate the amount of messenger RNA for the extent of upregulation of SOD message and its time course of synthesis as a function of stimulation by CMX-9236. Similar methods of analysis were used for other peptides.

The subject of experiment [4] is superoxide dismutase (SOD) protein. Put plainly: Western immunoblot of SOD protein in rat brain primary cortical cultures. Format: cell-based. To be noted: for SOD: 5 hours at 37° C. The procedure: as §1, with “nuclei. […]” for “nuclei.”
(§2) Tissue culture experiments were carried out using primary cultures of rat brain cortical cells as previously described above in Example 2. Primary cultures from embryonic rat brain isolated at E-21 (21 day embryos) and incubated for five hours with various doses: 1, 10, 100 ng/ml of CMX-99672. Cytoplasmic proteins were isolated and analyzed for upregulation of SOD and CAT by Western immunoblots as described above. […] The Western blot was scanned to quantify the fold-increase in SOD production in cell cultures treated with the CMX-99672 peptide compound.
Representative peptide compounds were tested at various doses and compared for their ability to upregulate expression of genes for SOD and/or CAT in rat primary cortical cultures basically as described above. Cultures were incubated with a peptide compound for 5 hours at 37° C. Cytoplasmic protein fractions were prepared as described above. Cytoplasmic proteins were separated by gel electrophoresis and analyzed by Western immunoblots using antisera to SOD and CAT, respectively (Rockland, Inc., Gilbertsville, Pa.). […]
For orientation: In western blotting, separated proteins are transferred to a membrane and probed.

The test system of the next experiment is catalase (CAT) mRNA. Put plainly: RT-PCR upregulation of catalase (CAT) mRNA in primary rat cortical cultures. The format is cell-based. To be noted: 10 ng/ml, 3 hours. The text has this:
Peptide compounds of the invention may also upregulate mRNA for catalase (CAT). Experiments using the RT-PCR methods to detect upregulation of CAT mRNA in primary rat cortical brain cultures treated with various representative peptide compounds, i.e., CMX-9236, CMX-9963, and CMX-9967. The catalase probe duplex consisted of a sense primer having the sequence […] (SEQ ID NO:31) and antisense primer having the sequence […] (SEQ ID NO:32) flanking a 95 bp region of the CAT DNA.
Primary rat brain cortical cell cultures were incubated with 100 ng/ml of the peptide compound CMX-9236 for 0, 0.5, 1, 2, 3, 6, 12, 24, and 48 hours. […] The upregulation of CAT mRNA was maximal at 3 hours after the addition of the peptide compound, and it decreased back to control levels at 48 hours. GAPDH was the internal standard in these experiments. […] A 13-fold increase in CAT mRNA levels was observed (over control) of CAT mRNA occurred when primary rat brain cortical cultures were incubated with 100 ng/ml of CMX-9236 for 3 hours.

A further experiment relates to catalase (CAT) protein. Put plainly: Western immunoblot of CAT protein in rat primary cortical cultures. The format is cell-based. To be noted: Dose 28 pmol/ml, 5 hours at 37° C. The procedure: as §2
Representative peptide compounds were tested at various doses and compared for their ability to upregulate expression of genes for SOD and/or CAT in rat primary cortical cultures basically as described above. Cultures were incubated with a peptide compound for 5 hours at 37° C. Cytoplasmic protein fractions were prepared as described above. Cytoplasmic proteins were separated by gel electrophoresis and analyzed by Western immunoblots using antisera to SOD and CAT, respectively (Rockland, Inc., Gilbertsville, Pa.).

Experiment [5] has as its system middle cerebral artery (MCA) permanent occlusion stroke model. In words: Permanent MCA 24-hour occlusion stroke model. The format is in vivo, Sprague-Dawley rats. The following applies: Dose 0.05 mg/hr.

Ends that are not written are not given here.

Turning to “KKETLQFR [CMX-8933, described in U.S. Pat. No. 5,545,719]”, the “activation / upregulation of AP-1 (in words)” value in experiment [1] is “upregulated AP-1”. Moreover, the “neuroprotective effect in permanent MCA assay (in words)” value in experiment [2] is “positive neuroprotective effect”.

In the case of KKQYKLGSKTGPGQ [CMX-9901], the “activation / upregulation of AP-1 (in words)” value in experiment [1] was “upregulated AP-1”. For the same substance, the “neuroprotective effect in permanent MCA assay (in words)” value in experiment [2] is “positive neuroprotective effect”.

Consider [Ac]-Asp Gly Asp [CMX-9967], for which, in experiment [3], the “maximum increase of SOD-1 mRNA” value was found to be 6 fold. Moreover, the SOD in experiment [4] (Dose 28 pmol/ml) is recorded as 1220 % Control. For the same substance, the “fold-increase in SOD-1 protein (intensity of antibody binding)” value in experiment [4] (cells treated 5 hours with 10 and 100 ng/ml) is no less than 20 fold. The “maximum increase of CAT mRNA” value in the experiment on catalase (CAT) mRNA was 6 fold. In the experiment on catalase (CAT) protein, this substance yielded a CAT of 200 % Control. In experiment [5], the “Percent Neurological Rescue” value amounted to 40 ± 10% and the “Percent Rescue (percent decrease in infarct size vs vehicle controls)” value came out at 20 ± 6%.

As to “[Ac]-Asp Gly Asp Gly Asp Phe Ala (Ac-DGDGDFA) [CMX-9963]”, the “maximum increase of SOD-1 mRNA” value in experiment [3] is listed as “around 10 fold”. In experiment [4] (Dose 6.7 pmol/ml), this substance displayed an SOD of 1873 % Control. The “maximum increase of CAT mRNA” value with catalase (CAT) mRNA is roughly 7 fold. This substance displayed a CAT in the experiment with catalase (CAT) protein of 700 % Control.

The values above are taken from patent US8772237B2, “Compositions and methods for counteracting effects of reactive oxygen species and free radicals” (Ischemix, Inc., priority 1999, dated 2014).
